The conditions of this data set: 298.15 K; 101.33 kPa; Crystal; mass and volume measurments.

± gives the expanded uncertainty stated by the source.

For `Oc1cccnc1O` [2,3-dihydroxypyridine], the mass density came to 1130 ± 20 kg/m3.

The term mass density denotes the mass of a sample divided by its volume.

The record behind these values is the NIST ThermoML archive (doi:10.1016/j.jct.2005.06.013).
